Key:
Type in all cases: in vivo
Wistar male rat [1] = assay: Blood glucose concentration increasing activity of RFRP (intravenous administration to rat); conditions: RFRP-1 10 nmol/kg intravenous, 5 minutes and 15 minutes after administration, vs physiological saline group
Text: (§1) In the figure, (-∘-) represents a blood glucose concentration of a physiological saline administration group, (-▴-) represents a blood glucose concentration of an RFRP-1 1 nmol/kg administration group, and (-▪-) represents a blood concentration of an RFRP-1 10 nmol/kg administration group.
As RFRP, human RFRP-1 (37 amino acids) consisting of an amino acid sequence of 56th (Ser) to 92nd (Phe) of an amino acid sequence represented by SEQ ID No.: 4. Hereinafter, this peptide is abbreviated as RFRP-1.
In order to study influence of peripheral administration of RFRP-1 on a blood glucose concentration, operation for collecting blood under free moving was performed. A mature Wistar male rat (weight 310 to 350 g at operation) was anesthetized with 50 mg/kg of pentobarbital by intraperitoneal administration. The rat was fixed on an anatomic pad in a supine position, and a left jugular vein was exposed. […]
Overnight after operation, 300 μl of blood was collected using a tuberculin injection syringe having a dose of 1 ml and a 25 gauge injection needle (both Telmo) before administration of RFRP-1. […] A blood glucose concentration was measured using Fuji Drichem 3500 (FUJIFILM).

Wistar male rat [2] = assay: Pancreatic glucagon secretion promoting activity of RFRP (blood glucagon and insulin in rat); conditions: RFRP-1 intravenous; for blood glucagon concentration: vs physiological saline group
Text: as §1, with “blood glucagon” for “blood glucose”, “blood glucagon” for “blood”
as §1, with “blood insulin” for “blood glucose”, “blood insulin” for “blood”, “group. A value indicates mean±standard deviation (mean±SE) (n=4).” for “group.”
In order to study mechanism of blood glucose concentration increasing activity of RFRP-1, influence of RFRP-1 on a blood concentration of glucagon and insulin which are known as a hormone imparting a variation to a blood glucose concentration was studied. A mature Wistar male rat (weight 310 to 350 g at operation) was operated for collecting blood under free moving. Overnight after operation, 300 μl of a blood was collected using a tuberculin injection syringe having a dose of 1 ml and a 25 gauge injection needle (both Telmo) before administration of RFRP-1. In order to prevent blood coagulation, 3 μl of a 300 KIU/ml aprotinin solution containing 3 mg/ml EDTA had been placed into an injection syringe in advance. An Otsuka physiological saline or RFRP-1 dissolved in a physiological saline (80 nmol/mL) was intravenously administered through a tube at 1 mL/Kg. After 1, 3, 5 and 15 minutes from initiation of intravenous administration, each 300 μl of blood was collected from a jugular vein. The collected blood was centrifuged (13,000 rpm, 5 minutes) using a minor amount high speed cooling centrifuge (MR-150, Tommy Seiko), and the supernatant (plasma) was recovered.

Wistar male rat [3] = assay: Amnesia promoting activity of RFRP (cued fear conditioning, ventricle administration); conditions: RFRP-1 3 nmol into a ventricle, on 2 day (48 hours after training), sound stimulation
Description: FIG. 4 indicates a ratio of freezing in a sound clue when RFRP-1 (-□-) and a physiological saline (-∘-) are administered in a ventricle. An ordinate axis indicates freezing (%) of one day and two day after administration, respectively, expressed by mean±standard error.
Since an RFRP nerve is projected on amygdaloid complex, in order to study involvement of RFRP in amygdaloid complex-dependent memory•learning ability, influence under cued fear conditioning due to ventricle administration of RFRP-1 was studied. A mature Wistar male rat (weight 280 to 320 g at operation) was anesthetized with 50 mg/kg of pentobarbital by intraperitoneal administration, and a rat was fixed in a brain localization apparatus. A tooth cutting bar was set lower by 3.3 mm from an interoralline. A cranial bone was exposed, and a hole was opened in a bone using a dental drill in order to embed a guide cannulae AG-12 (internal diameter 0.4 mm, external diameter 0.5 mm, Eicom) in a ventricle. In addition, an anchor screw was embedded in four places at a periphery thereof. A stainless guide cannulae AG-12 was inserted so that its tip was positioned at an upper part of a side ventricle. A localization coordinate was set to be AP: −0.8 mm, L: 1.5 mm, H, 4.5 mm from a Blegma according to Atlas of Paxinos and Watson (1986). […]

**Q.** What does the source list for “RFRP-1: human RFRP-1 (37 amino acids) consisting of an amino acid sequence of 56th (Ser) to 92nd (Phe) of SEQ ID No.: 4 (SLNFEELKDWGPKNVIKMSTPAVNKMPHSFANLPLRF; Human)”?
**A.** blood glucose concentration (Wistar male rat [1]): significant (p<0.05, n=4) activity of increasing a blood glucose concentration; blood insulin concentration (Wistar male rat [2]): a variation due to administration of RFRP-1 was not recognized; blood glucagon concentration (Wistar male rat [2]; 5 minutes after administration): significant (p<0.01) increase was continued; blood glucagon concentration (Wistar male rat [2]; two minutes after administration): significant (p<0.01) increase in a blood glucagon concentration was recognized; rate of freezing (Wistar male rat [3]): 35.5%

From patent US20090239839A1, “RECEPTOR ANTAGONIST” (TAKEDA PHARMACEUTICAL COMPANY LIMITED, priority 2003, published 2009)
